In US8084621B2, “3-Pyrrolo[b]cyclohexylene-2-dihydroindolinone derivatives and uses thereof” (Jiangsu Simcere Pharmaceutical R&D Co. Ltd., priority 2006, dated 2011):

Columns and labels:
Type in all cases: cell-based
[1] = system: Human Pancreatic Carcinoma Cell Line (BXPC-3); experiment: Tumor cell proliferation assay (MTT), BXPC-3; conditions: for inhibition at 10 µM: concentration of 10^−5 mol/L, preliminary screening, 72 hours, read-out: Inhibition rate % BXPC-3; for IC50: secondary screening, 48 hours
From the text: (§1) The assay used generally is the blue tetrazolium bromide (MTT) method. […] The amount of formazan can be detected by the microplate reader through the absorption value at 570 nm. The amount of formazan product generated is proportional to the number of living cells in the sample, so the OD value may reflect the number of living cells and the ability of a test drug to inhibit or kill cells. The MTT assay may be used in determining the ability of different compounds of the present invention to inhibit one or more cancer cells proliferation. Similar assays can be designed along the same lines for any cancer cell using techniques well known in the art.
(§2) The assay used generally is the blue tetrazolium bromide (MTT) method. […] Intracellular purple formazan salt crystals can be solved in DMSO and the absorption value at 570 nm is detected by the microplate reader, then the number of living cells can be detected indirectly. So MTT assay may be used to determine the ability of a compound of the present invention to inhibit cell proliferation. Similar assays can be designed along the same lines for any cancer cell using techniques well known in the art.
2.2.6 Human Pancreatic Carcinoma Cell Line (BXPC-3);
The cells of 2.2.6, 2.2.7 cultured in RPMI 1640 medium containing 12% fetal bovine serum in the condition of 37° C., 5% CO2.
(§3) 2.3.1 Cell seeding: Trypsinize the cell by 0.05% trypsin-EDTA and add RPMI 1640 medium (DMEM or 5A) containing 12% calf serum. Count the number, then dilute to 1.67×10^4/ml. Add 180 ul/well to the 96 well plate (3000 cells/well).
(§4) 2.3.2 Culture: cells are incubated for 24 hours at 37° C. under 5% CO2.
(§5) 2.3.3 Preliminary screening: The compounds are firstly diluted to 0.1 mol/L with DMSO, and then diluted to three concentrations of 10^−5 mol/L, 10^−6 mol/L and 10^−7 mol/L. Add 20 ul test compounds to the 96 well plate and incubate for 72 hours. Each group has three parallel wells and all experiments repeat three times. Each inhibition ratio is calculated, then an average value of three times is taken as the measured value. 2.3.4 Staining 2.3.4.1 Attached cell: add 20 ul/well MTT to the 96-well plates; incubate for 4 hours in the incubator. Pour out the culture medium in the well and add 100 ul/well DMSO. Shake the plate for 5 min. 2.3.4.2 Suspension cell: add 20 ul/well MTT to the 96-well plates; incubate for 4 hours in the incubator. Add 50 ul/well 20% SDS and incubate for overnight in the incubator. 2.3.5 Reading the plates: read the absorbance A570-A630 with the Infinite M200 microtiter plate reader. Calculate the inhibition ratio of the test compounds. […] Dilute these compounds to ten concentrations: 10^−5 mol/L, 0.5×10^−5 mol/L, 10^−6 mol/L, 0.8×10^−6 mol/L, 0.6×10^−6 mol/L, 0.4×10^−6 mol/L, 0.2×10^−6 mol/L, 10^−7 mol/L, 0.8×10^−7 mol/L and 0.4×10^−7 mol/L. Add 20 ul test compound solution to the 96 well plate and incubate for 48 hours. Each group has three parallel wells and all experiments repeat for three times. Read the plates and calculate the inhibition ratio according to the preliminary screening method. 2.3.7 Calculate the Inhibition Ratio of Cell Proliferation and the IC50
(§6) According to the inhibition ratio of cell proliferation at the different concentrations of the compound, inhibition ratio of 50% of the test compound is calculated through the logarithm of the concentration of the compound with the Logit [I] linear regression, and an average value of three times is taken as the measured value of a sample.

[2] = system: Human Gastric Cancer Cell Line (BGC); experiment: Tumor cell proliferation assay (MTT), BGC; conditions: for inhibition at 10 µM: concentration of 10^−5 mol/L, preliminary screening, 72 hours, read-out: Inhibition rate % BGC; for IC50: secondary screening, 48 hours
From the text: as §1, §2
2.2.1 Human Gastric Cancer Cell Line (BGC)
(§7) The cells of the 2.2.1, 2.2.2, 2.2.3, 2.2.4, 2.2.5 cultured with RPMI 1640 containing 12% calf serum in the condition of 37° C., 5% CO2.
as §3, §4
(§8) 2.3.3 Preliminary screening: The compounds are firstly diluted to 0.1 mol/L with DMSO, and then diluted to three concentrations of 10^−5 mol/L, 10^−6 mol/L and 10^−7 mol/L. Add 20 ul test compounds to the 96 well plate and incubate for 72 hours. Each group has three parallel wells and all experiments repeat three times. Each inhibition ratio is calculated, then an average value of three times is taken as the measured value. 2.3.4 Staining 2.3.4.1 Attached cell: add 20 ul/well MTT to the 96-well plates; incubate for 4 hours in the incubator. Pour out the culture medium in the well and add 100 ul/well DMSO. Shake the plate for 5 min. 2.3.4.2 Suspension cell: add 20 ul/well MTT to the 96-well plates; incubate for 4 hours in the incubator. Add 50 ul/well 20% SDS and incubate for overnight in the incubator. 2.3.5 Reading the plates: read the absorbance A570-A630 with the Infinite M200 microtiter plate reader. Calculate the inhibition ratio of the test compounds. 2.3.6 Secondary screening: the compounds whose inhibition ratio is greater than 50% at the concentrations of 10^−5 mol/L in the preliminary screening will be picked out for Secondary screening. Dilute these compounds to ten concentrations: 10^−5 mol/L, 0.5×10^−5 mol/L, 10^−6 mol/L, 0.8×10^−6 mol/L, 0.6×10^−6 mol/L, 0.4×10^−6 mol/L, 0.2×10^−6 mol/L, 10^−7 mol/L, 0.8×10^−7 mol/L and 0.4×10^−7 mol/L. Add 20 ul test compound solution to the 96 well plate and incubate for 48 hours. Each group has three parallel wells and all experiments repeat for three times. Read the plates and calculate the inhibition ratio according to the preliminary screening method. 2.3.7 Calculate the Inhibition Ratio of Cell Proliferation and the IC50
as §6

[3] = system: Human Colon Cancer Cell Line (HT-29); experiment: Tumor cell proliferation assay (MTT), HT29; conditions: for inhibition at 10 µM: concentration of 10^−5 mol/L, preliminary screening, 72 hours, read-out: Inhibition rate % HT29; for IC50: secondary screening, 48 hours
From the text: as §1, §2
2.2.11 Human Colon Cancer Cell Line (HT-29);
(§9) The cells of 2.2.11, 2.2.12, 2.2.13 were cultured in MC COYS 5-A medium containing 12% fetal bovine serum in the condition of 37° C., 5% CO2.
as §3, §4, §5, §6

[4] = system: Human Pancreatic Carcinoma Cells (PANC-1); experiment: Tumor cell proliferation assay (MTT), PANC-1; conditions: for inhibition at 10 µM: concentration of 10^−5 mol/L, preliminary screening, 72 hours, read-out: Inhibition rate % PANC-1; for IC50: secondary screening, 48 hours
From the text: as §1, §2
2.2.4 Human Pancreatic Carcinoma Cells (PANC-1)
as §7, §3, §4, §8, §6

[5] = system: Human Ovarian Cancer Cell Line (SK-OV-3); experiment: Tumor cell proliferation assay (MTT), SK-OV-3; conditions: for inhibition at 10 µM: concentration of 10^−5 mol/L, preliminary screening, 72 hours, read-out: Inhibition rate % SK-OV-3; for IC50: secondary screening, 48 hours
From the text: as §1, §2
2.2.13 Human Ovarian Cancer Cell Line (SK-OV-3).
as §9, §3, §4, §8, §6

SMILES	IC50 [1]	IC50 [2]	IC50 [3]	IC50 [4]	IC50 [5]	inhibition at 10 µM [1]	inhibition at 10 µM [2]	inhibition at 10 µM [3]	inhibition at 10 µM [4]	inhibition at 10 µM [5]
Cc1[nH]c2c(c1C(=O)N1CCN(C)CC1)CCC/C2=C1/C(=O)Nc2ccc(F)cc21 [I-14, 2-methyl-3-(4-methylpiperazine-1-carbonyl)-7-[1,2-dihydro-5-fluoro-2-oxo-3H-indol-(Z)-3-ylidene]-4,5,6,7-tetrahydro-1H-indole]						68.3%	39.4%	43.3%	14%	
CCN(CC)CCNC(=O)c1c(C)[nH]c2c1CCC/C2=C1/C(=O)Nc2ccc(C)cc21 [I-4, N-(2-(diethylamino)ethyl)-2-methyl-7-[1,2-dihydro-5-methyl-2-oxo-3H-indol-(Z)-3-ylidene]-4,5,6,7-tetrahydro-1H-indole-3-carboxamide]					5.27 µM	78.4%		89.9%		57.1%
Cc1[nH]c2c(c1C(=O)NCCN(C)C)CCC/C2=C1/C(=O)Nc2ccc(F)cc21 [I-6, N-(2-(dimethylamino)ethyl)-2-methyl-7-[1,2-dihydro-5-fluoro-2-oxo-3H-indol-(Z)-3-ylidene]-4,5,6,7-tetrahydro-1H-indole-3-carboxamide]	5990 nM		4380 nM			64.9%	32.3%	61.9%	19.8%	32.2%
Cc1[nH]c2c(c1C(=O)NCCO)CCC/C2=C1/C(=O)Nc2ccc(F)cc21 [I-9, N-(2-hydroxyethyl)-2-methyl-7-[1,2-dihydro-5-fluoro-2-oxo-3H-indol-(Z)-3-ylidene]-4,5,6,7-tetrahydro-1H-indole-3-carboxamide]						63.7%	42.1%	66.7%	0%	

Now from value to compound, other results behind:

IC50 [1]	IC50 [2]	IC50 [3]	IC50 [4]	IC50 [5]	SMILES	inhibition at 10 µM [1]	inhibition at 10 µM [2]	inhibition at 10 µM [3]	inhibition at 10 µM [4]	inhibition at 10 µM [5]
2730 nM	1.42 µM	790 nM	1.48 µM	1.54 µM	Cc1[nH]c2c(c1C(=O)NCC(O)CN1CCCC1)CCC/C2=C1/C(=O)Nc2ccc(F)cc21 (centres unmarked) [I-71, N-(2-hydroxy-3-(pyrrolidin-1-yl)propyl)-2-methyl-7-[1,2-dihydro-5-fluoro-2-oxo-3H-indol-(Z)-3-ylidene]-4,5,6,7-tetrahydro-1H-indole-3-carboxamide]	98.9%	82.3%	95%	97.4%	91.7%
8700 nM	3.45 µM	8380 nM	5.53 µM	6.4 µM	Cc1[nH]c2c(c1C(=O)NCC(O)CN1CCN(C)CC1)CCC/C2=C1/C(=O)Nc2ccc(F)cc21 (centres unmarked) [I-77, N-[2-hydroxy-3-(4-methylpiperazin-1-yl)propyl]-2-methyl-7-[1,2-dihydro-5-fluoro-2-oxo-3H-indol-(Z)-3-ylidene]-4,5,6,7-tetrahydro-1H-indole-3-carboxamide]	45.9%	84.2%	74.4%	61.9%	77.3%
1170 nM					Cc1[nH]c2c(c1C(=O)NCCO)CCC/C2=C1/C(=O)Nc2ccccc21 [I-8, N-(2-hydroxyethyl)-2-methyl-7-[1,2-dihydro-2-oxo-3H-indol-(Z)-3-ylidene]-4,5,6,7-tetrahydro-1H-indole-3-carboxamide]	74.9%	47%	84.8%	5.66%	38.1%
240 nM	7.95 µM	420 nM			Cc1[nH]c2c(c1C(=O)NCC(O)CN1CCCCC1)CCC/C2=C1/C(=O)Nc2ccc(F)cc21 (centres unmarked) [I-74, N-(2-hydroxy-3-(piperidin-1-yl)propyl)-2-methyl-7-[1,2-dihydro-5-fluoro-2-oxo-3H-indol-(Z)-3-ylidene]-4,5,6,7-tetrahydro-1H-indole-3-carboxamide]	32.1%	60.2%	92.2%	93.6%	88.2%
